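1) Cells in 96-well plates. 2) Compound, 48 h, 5 concentrations. 3) Linear interpolation between surrounding doses. 4) Unreached endpoint = highest concentration. Here, GI50 denotes the concentration required for 50% inhibition of growth.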 Active and inactive are the calls of the source. No stated cut-off is given here; in the data, active = GI50 up to about 1.1 µM and inactive = higher.
What was measured:
Assay in all cases: inhibition of tumour cell growth, NCI panel, 48 h
A549 = system: A549
CAKI-1 = system: CAKI-1
CCRF-CEM = system: CCRF-CEM
COLO 205 = system: COLO 205
DU-145 = system: DU-145
HCC 2998 = system: HCC 2998
HOP-62 = system: HOP-62
HT-29 = system: HT-29
IGROV-1 = system: IGROV-1
Malme-3M = system: Malme-3M
NCI-H460 = system: NCI-H460
NCI/ADR-RES = system: NCI/ADR-RES
OVCAR-5 = system: OVCAR-5
PC-3 = system: PC-3
SK-MEL-5 = system: SK-MEL-5
SK-OV-3 = system: SK-OV-3
SN12C = system: SN12C
SW-620 = system: SW-620
UACC-62 = system: UACC-62

SMILES | GI50 (A549) | GI50 (CAKI-1) | GI50 (CCRF-CEM) | GI50 (COLO 205) | GI50 (DU-145) | GI50 (HCC 2998) | GI50 (HOP-62) | GI50 (HT-29) | GI50 (IGROV-1) | GI50 (Malme-3M) | GI50 (NCI-H460) | GI50 (NCI/ADR-RES) | GI50 (OVCAR-5) | GI50 (PC-3) | GI50 (SK-MEL-5) | GI50 (SK-OV-3) | GI50 (SN12C) | GI50 (SW-620) | GI50 (UACC-62)
c1ccc(C2=NC3OC2c2ccccc23)cc1 (centres undefined) | > 10 µM (inactive) | > 10 µM (inactive) | > 10 µM (inactive) | > 10 µM (inactive) | > 10 µM (inactive) | > 10 µM (inactive) | > 10 µM (inactive) | > 10 µM (inactive) | > 10 µM (inactive) | > 10 µM (inactive) | > 10 µM (inactive) | > 10 µM (inactive) | > 10 µM (inactive) | > 10 µM (inactive) | > 10 µM (inactive) | > 10 µM (inactive) | > 10 µM (inactive) | > 10 µM (inactive) | > 10 µM (inactive)
CCOC(=O)/C=C(/C(=O)OCC)n1cnc2c(=O)[nH]c(NC(C)=O)nc21 | > 100 µM (inactive) | > 100 µM (inactive) | > 100 µM (inactive) | > 100 µM (inactive) | > 100 µM (inactive) | > 100 µM (inactive) | > 100 µM (inactive) | > 100 µM (inactive) | > 100 µM (inactive) | > 100 µM (inactive) | > 100 µM (inactive) | > 100 µM (inactive) | > 100 µM (inactive) | > 100 µM (inactive) | > 100 µM (inactive) | > 100 µM (inactive) | > 100 µM (inactive) | > 100 µM (inactive) | > 100 µM (inactive)
O/N=N/c1ccc(-c2ccccc2)cn1 | 21.7 µM (inactive) | 4.55 µM (inactive) | 2.2 µM (inactive) | 15 µM (inactive) | 2.22 µM (inactive) | 16.9 µM (inactive) | 3.45 µM (inactive) | 20.6 µM (inactive) | 27.7 µM (inactive) | 11.5 µM (inactive) | 6.25 µM (inactive) | 8.77 µM (inactive) | 20.3 µM (inactive) | 7.4 µM (inactive) | 11.9 µM (inactive) | 20.3 µM (inactive) | 10.8 µM (inactive) | 10.7 µM (inactive) | 7.64 µM (inactive)
C=CCOC(=O)C1=C(C)N=C2N[C@H](CCCCCCCCC)C[C@@H]3CCC1N23 (some centres undefined) | 30.1 µM (inactive) | 34 µM (inactive) | 36.4 µM (inactive) | 21.3 µM (inactive) | 27.4 µM (inactive) | 21.9 µM (inactive) | 30.5 µM (inactive) | 27.9 µM (inactive) | 21.6 µM (inactive) | 17.3 µM (inactive) | 25.4 µM (inactive) | 22.8 µM (inactive) | 22.7 µM (inactive) | 21.6 µM (inactive) | 17.7 µM (inactive) | 27.5 µM (inactive) | 18.2 µM (inactive) | 28.7 µM (inactive) | 17.7 µM (inactive)
CC(C)=CCc1[nH]c2ccccc2c1C1=C(O)C(=O)C(c2c(CC=C(C)C)[nH]c3ccccc23)=C(O)C1=O | 0.587 µM (active) | 1.73 µM (inactive) | 1.03 µM (active) | 1.63 µM (inactive) | 2.39 µM (inactive) | 1.01 µM (active) | 0.815 µM (active) | 2.22 µM (inactive) | 0.573 µM (active) | 0.628 µM (active) | 1.34 µM (inactive) | 2.7 µM (inactive) | 2.89 µM (inactive) | 1.83 µM (inactive) | 1.76 µM (inactive) | 2.11 µM (inactive) | 1.26 µM (inactive) | 3.27 µM (inactive) | 0.377 µM (active)
C=C1CCCC(C)(C)[C@H]1C/C=C1\CCOC1=O | 13.7 µM (inactive) | 16.6 µM (inactive) | 21.6 µM (inactive) | 19.3 µM (inactive) | 13.2 µM (inactive) | 23.9 µM (inactive) | 17.6 µM (inactive) | 13.9 µM (inactive) | 14.2 µM (inactive) | 13.5 µM (inactive) | 11.8 µM (inactive) | 10.5 µM (inactive) |  | 16.9 µM (inactive) | 10.2 µM (inactive) | 10.5 µM (inactive) | 18.2 µM (inactive) | 18.7 µM (inactive) | 29.4 µM (inactive)
NC(Cc1ccccc1)C(=O)OCN1C(=O)C2C3C=CC(C2C1=O)C1C(=O)N(COC(=O)C(N)Cc2ccccc2)C(=O)C31 (centres undefined) | > 100 µM (inactive) | > 100 µM (inactive) | 21.7 µM (inactive) | 75.9 µM (inactive) | > 100 µM (inactive) | > 100 µM (inactive) | > 100 µM (inactive) | 18.4 µM (inactive) | > 100 µM (inactive) | 17.2 µM (inactive) | 67.9 µM (inactive) | > 100 µM (inactive) | > 100 µM (inactive) | > 100 µM (inactive) | 49.8 µM (inactive) |  | > 100 µM (inactive) | 28.8 µM (inactive) | 38.8 µM (inactive)
CC(=O)O/N=C1\C=Cc2c(no[n+]2[O-])C1=O | 16.1 µM (inactive) | 20.5 µM (inactive) | 3.65 µM (inactive) | 9.23 µM (inactive) | 17.9 µM (inactive) | 22.1 µM (inactive) | 38.3 µM (inactive) | 17.5 µM (inactive) | 16.4 µM (inactive) | 14.7 µM (inactive) | 34.7 µM (inactive) | 27.6 µM (inactive) | 18.3 µM (inactive) | 17 µM (inactive) | 17.5 µM (inactive) |  | 18.5 µM (inactive) | 3.37 µM (inactive) | 16 µM (inactive)
CCN(CC)CC1CCCCN1CC(=O)N1c2ccccc2NC(=O)CC1C (centres undefined) | > 100 µM (inactive) | > 100 µM (inactive) | > 100 µM (inactive) | > 100 µM (inactive) | > 100 µM (inactive) | > 100 µM (inactive) | > 100 µM (inactive) | > 100 µM (inactive) | > 100 µM (inactive) | > 100 µM (inactive) | > 100 µM (inactive) | > 100 µM (inactive) | > 100 µM (inactive) | > 100 µM (inactive) | > 100 µM (inactive) | > 100 µM (inactive) | > 100 µM (inactive) | > 100 µM (inactive) | 
CCCCCCCC/C=C(\Br)C(O)C(Br)Br (centres undefined) | 31.4 µM (inactive) | 19.5 µM (inactive) | 16.1 µM (inactive) | 18.9 µM (inactive) | 38.6 µM (inactive) | 18.8 µM (inactive) | 19.6 µM (inactive) |  | 24.7 µM (inactive) | 21.1 µM (inactive) | 30.4 µM (inactive) | 26.2 µM (inactive) | 19.3 µM (inactive) | 38.1 µM (inactive) | 17.9 µM (inactive) | 26.6 µM (inactive) | 17.3 µM (inactive) | 16.3 µM (inactive) | 19.3 µM (inactive)
CC(=O)O[C@H]1C[C@H]2[C@@H]([C@H](OC(C)=O)C[C@@H]3CC4(CC[C@@]32C)OOC2(CCCCC2)OO4)[C@@H]2CC[C@H]([C@H](C)CCC(=O)O)[C@@]12C | 2.66 µM (inactive) | 7.1 µM (inactive) | 2.33 µM (inactive) | 3.91 µM (inactive) | 10.4 µM (inactive) | 12 µM (inactive) | 2.45 µM (inactive) | 11.5 µM (inactive) | 1.87 µM (inactive) | 16.4 µM (inactive) | 4.43 µM (inactive) | 4.88 µM (inactive) | 10.7 µM (inactive) | 7.24 µM (inactive) | 10.6 µM (inactive) | 13.7 µM (inactive) | 6.81 µM (inactive) | 10.2 µM (inactive) | 
O=C(CNc1nccs1)Nn1cnc2ccc(S(=O)(=O)Nc3nccs3)cc2c1=O | > 100 µM (inactive) | > 100 µM (inactive) | > 100 µM (inactive) | > 100 µM (inactive) | > 100 µM (inactive) | > 100 µM (inactive) | > 100 µM (inactive) | > 100 µM (inactive) | > 100 µM (inactive) | > 100 µM (inactive) | > 100 µM (inactive) | > 100 µM (inactive) | > 100 µM (inactive) | > 100 µM (inactive) |  | > 100 µM (inactive) | > 100 µM (inactive) | > 100 µM (inactive) | > 100 µM (inactive)
CC1(C)[N+]([O-])=[N+]([O-])C1(C)O (centres undefined) | > 100 µM (inactive) | > 100 µM (inactive) | > 100 µM (inactive) | > 100 µM (inactive) | > 100 µM (inactive) | > 100 µM (inactive) |  | > 100 µM (inactive) | > 100 µM (inactive) | > 100 µM (inactive) | > 100 µM (inactive) | > 100 µM (inactive) | > 100 µM (inactive) | > 100 µM (inactive) | > 100 µM (inactive) | > 100 µM (inactive) | > 100 µM (inactive) | > 100 µM (inactive) | > 100 µM (inactive)
CN(C)Cc1cc(C(=O)/C=C/c2ccc(Cl)cc2)cc(CN(C)C)c1O | 8.73 µM (inactive) | 6.05 µM (inactive) | 14.4 µM (inactive) | 4.27 µM (inactive) | 12.1 µM (inactive) | 18.7 µM (inactive) | 4.36 µM (inactive) | 5.6 µM (inactive) | 12.5 µM (inactive) | 11.7 µM (inactive) | 10.1 µM (inactive) | 15.8 µM (inactive) | 24.2 µM (inactive) | 10.8 µM (inactive) | 11.4 µM (inactive) |  | 10.8 µM (inactive) | 6.65 µM (inactive) | 
COC(=O)N/N=C(\c1ccccc1)c1ccc(OC)cc1 | > 100 µM (inactive) | > 100 µM (inactive) | > 100 µM (inactive) | > 100 µM (inactive) | > 100 µM (inactive) | > 100 µM (inactive) |  | > 100 µM (inactive) | 59.6 µM (inactive) | > 100 µM (inactive) | > 100 µM (inactive) | > 100 µM (inactive) | > 100 µM (inactive) | > 100 µM (inactive) | > 100 µM (inactive) | > 100 µM (inactive) | > 100 µM (inactive) | > 100 µM (inactive) | > 100 µM (inactive)
